The text below walks through data of publication PMC6010002, “Synthesis, pharmacology and molecular docking on multifunctional tacrine-ferulic acid hybrids as cholinesterase inhibitors against Alzheimer’s disease” (Journal of Enzyme Inhibition and Medicinal Chemistry, 2018).

Read-outs that look alike come from different tables or passages of the source.

In data set [1] the target is T1, AChE (EC 3.1.1.7) from electric eel (Electrophorus electricus, UniProt O42275).
T1 construct: AChE (EC 3.1.1.7, Type VI-S, from electric eel, C3389); purchased Sigma-Aldrich C3389; host or cells: electric eel (natural source)
T1 sequence (O42275 24-633): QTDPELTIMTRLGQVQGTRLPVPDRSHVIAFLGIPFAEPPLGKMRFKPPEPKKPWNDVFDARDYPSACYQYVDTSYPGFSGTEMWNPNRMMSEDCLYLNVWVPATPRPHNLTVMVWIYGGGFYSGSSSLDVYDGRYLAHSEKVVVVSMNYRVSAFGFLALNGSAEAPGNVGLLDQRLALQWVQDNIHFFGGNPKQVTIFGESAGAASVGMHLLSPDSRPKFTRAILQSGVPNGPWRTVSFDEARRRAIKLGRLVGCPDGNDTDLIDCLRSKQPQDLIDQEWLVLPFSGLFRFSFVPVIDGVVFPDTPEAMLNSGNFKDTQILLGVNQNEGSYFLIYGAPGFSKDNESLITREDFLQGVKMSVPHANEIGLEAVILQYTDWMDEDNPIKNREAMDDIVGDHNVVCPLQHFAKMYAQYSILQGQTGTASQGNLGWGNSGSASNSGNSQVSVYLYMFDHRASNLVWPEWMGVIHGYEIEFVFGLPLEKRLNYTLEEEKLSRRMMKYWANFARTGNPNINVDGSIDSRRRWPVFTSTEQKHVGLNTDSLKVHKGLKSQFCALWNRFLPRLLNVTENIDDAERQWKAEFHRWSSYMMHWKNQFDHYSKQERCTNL
The data set is described as follows: biochemical. As to conditions: for SI (selectivity index, AChE IC50/BuChE IC50): eeAChE IC50 / eqBuChE IC50; for IC50: eeAChE, mean ± SEM of triplicate independent experiments. Here is the method:
(§1) AChE (EC 3.1.1.7, Type VI-S, from electric eel, C3389) and BuChE (EC 3.1.1.8, from equine serum, C0663), 5,5’-dithiobis (2-nitrobenzoic acid) (DTNB, D218200), acetylthiocholine iodide (ATC, A5751) and butyrylthiocholine iodide (BTC, B3253) used as substrates were obtained from Sigma-Aldrich (St. Louis, MO).
(§2) The inhibitory capacity of the synthesised compounds on AChE and BuChE biological activity in this paper were evaluated according to our previously reported method. Briefly, AChE/BuChE stock solution was diluted with 0.2 M phosphate buffer pH 8.0 to give 2.5 units/mL (for electrophorus electricus (eeAChE) and equine serum (eqBuChE)). ATC/BTC iodide solution (0.075 M) was dissolved in deionized water. […] The assay solution was prepared as follows: potassium dihydrogen phosphate (1.36 g, 10 mmol) was dissolved in 100 ml of water. The pH of the solution was then adjusted to 8.0 ± 0.1 with KOH. Stock solutions of the test samples were dissolved in ethanol to give a final concentration of 10 − 4^ M when diluted to the final volume of 3.32 ml. For each compound, a dilution series of five different concentrations 10 − 5–10 − 9^9 M were prepared.
(§3) For measurement, a cuvette containing 3 mL of phosphate buffer, 100 μL of eeAChE or eqBuChE, 100 μL of DTNB, and 100 μL of the test compound solution was added in sequence. The reaction was initiated by adding 20 μL of ATC or BTC and the solution was mixed immediately. […] For the reference value, 100 μL of water was replaced for the test compound solution. For the blank control, additional 100 μL of water was also replaced for the enzyme solution. The measurement of each concentration was assayed in triplicate. GraphPad Prism 5 (GraphPad Software, Inc., La Jolla, CA) was used for data processing. The inhibition curve was fitted by plotting percentage enzyme activity (100% for the reference) versus the logarithm of test compound concentration. The half maximal inhibitory concentration (IC50) values were calculated according to the curve and the data were shown in mean ± SEM.
(§4) Inhibitory activities were presented as IC50 (nM).

Data set [2] concerns the target T2, BuChE (EC 3.1.1.8) from horse serum (Equus caballus, UniProt P81908).
T2 construct: BuChE (EC 3.1.1.8, from equine serum, C0663); purchased Sigma-Aldrich C0663; host or cells: equine serum (natural source)
Description: biochemical. As to conditions: eqBuChE, mean ± SEM of triplicate independent experiments. Here is the method:
as §1, §2, §3, §4

The subject of the next data set is adult male ICR mice. The format is in vivo. Conditions: serum, 3 mg/100 g body weight, mean ± SEM n = 6. Here is the method:
. Heparinised serum was obtained from the retrobulbar plexus 8, 22, and 36 h after the administration and were subjected to hepatotoxicity evaluation. The activity of aspartate aminotransferase (AST) and alanine aminotransferase (ALT), two indicators of liver damage, was determined by a commercial assay kit (EF551 and EF550 for ALT, EH027 and EF548 for AST, Wako, Japan). The data were analysed by Biochemical Analyzer (HITACHI 7020, Japan).
Mice were sacrificed 1 h after the collection of retrobulbar blood and livers were removed for morphological studies by using the immunohistochemical method. Two 3 mm sections of each liver extending from the hilus to the margin of the left lateral lobe were isolated using ultra-thin semiautomatic microtome (Leica RM2245, Germany) and placed in 10% buffered formaldehyde immediately, fixed for two days, and embedded together in one paraffin block by using paraffin embedding station (Leica EG1150H, Germany). Subsequently, 5 μm sections were prepared from these paraffin blocks. They were deparaffinated and stained with hematoxylin and eosin (H&E) for histopathological examinations.

The test system of data set [3] is scopolamine-induced cognition-impaired adult ICR mice. Description: Morris water maze in scopolamine-induced cognition-impaired mice. Conditions: 30 mg/kg oral, scopolamine 1 mg/kg i.p., mean ± SEM n = 6. It is filed as in vivo. Here is the method: Behavioral studies were performed using the Morris water maze[25] according to our method reported previously. Adult male imprinting control region (ICR) mice (8–10 weeks old, weight 20–25 g) were obtained from the Yangzhou University Medical Center (Yangzhou, China). All animal handling and experimental protocols were approved by the Institutional Animal Care and Use Committee of the China Pharmaceutical University. Scopolamine hydrobromide was purchased from Aladdin Reagents (S107418, Shanghai, China).
A circular pool (120 cm in diameter, 60 cm height) which was fixed with an escape platform (10 cm diameter) and filled to a depth of 40 cm fresh water (kept at 25 °C) composed the water maze and this water maze placed in a lit room was used to evaluate the cognition function and memory capacity of mice according to our previously described method[24] . After five days of learning and memory training, a probe trial was performed on day 6. For the evaluation of cognitive function, each mouse was individually trained on a visible-platform (labeled by a small flag, 5 cm tall) for two days and was followed by a hidden-platform version (placed 1 cm below the surface of the water) of the water maze from day 3 to day 5. All mice were subjected to two training trials daily, each of which lasted for 90 s. The time for each mouse to find the platform (a successful escape) was recorded. […] On the last day (day 6), a probe trial was given to the mice in which the platform was removed from the pool and each mouse was allowed 90 s to search for the platform. The time the animals spent to reach the missing platform location and the number of times they crossed that location were recorded.
Data for the time of escape latency, the swimming trajectory, and the number of visual platform crossings were recorded by Panlab SMART 3.0 (Panlab, S.L.U, Spain) and GraphPad Prism 5 was used to evaluate the level of memory retention.

The subject of another data set is HepG2 cells. As to conditions: 24 h, MTT, mean ± SEM n = 3. Here is the method: To determine the possible drug-induced hepatotoxicity, 10d and 10g were selected for preliminary hepatotoxicity evaluation. Heparinised serum was obtained after the treatment of the compounds at 8, 22, and 36 h, respectively. […] Additionally, immunohistochemical staining was performed on the liver tissues for the histopathological study.
Methods for Cell Viability Assay. The human hepatocellular HepG2 cells were […]
Cells were seeded into 96-well plates at a density of 3
37 °C for the following experiments. For cytotoxicity test, cells were treated with 0.05- […]
Cell viability was measured by 3-(4,5- dimethylthiazol-2-yl)-2,5-diphenyltetrazolium bromide (MTT) analysis. In brief, 15 µL of MTT was added into each well and incubated at 37 °C for 4 h. The […]
viability was calculated and presented by the percentage of vehicle-treated group.

T2 sequence (P81908 whole entry): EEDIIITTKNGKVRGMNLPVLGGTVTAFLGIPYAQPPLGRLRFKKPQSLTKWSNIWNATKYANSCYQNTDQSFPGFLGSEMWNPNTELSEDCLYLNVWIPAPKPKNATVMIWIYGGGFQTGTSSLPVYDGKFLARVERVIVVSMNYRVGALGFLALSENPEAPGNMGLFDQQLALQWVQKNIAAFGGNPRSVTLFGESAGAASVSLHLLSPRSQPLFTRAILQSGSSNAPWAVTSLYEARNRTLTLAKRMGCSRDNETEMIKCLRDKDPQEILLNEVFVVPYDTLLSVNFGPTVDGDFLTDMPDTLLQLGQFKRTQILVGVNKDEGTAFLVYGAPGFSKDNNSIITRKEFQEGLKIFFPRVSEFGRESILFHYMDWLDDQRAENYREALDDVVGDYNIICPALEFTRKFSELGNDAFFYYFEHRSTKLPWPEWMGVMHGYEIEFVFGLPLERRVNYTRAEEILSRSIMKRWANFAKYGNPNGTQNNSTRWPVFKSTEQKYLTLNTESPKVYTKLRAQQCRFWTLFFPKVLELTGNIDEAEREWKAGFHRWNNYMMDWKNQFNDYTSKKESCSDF

On to `COc1cc(/C=C/C(=O)NCCNc2c3c(nc4ccccc24)CCCC3)ccc1OCc1cccc(C)c1` [Compound 10f, (E)-3–(3-methoxy-4-((3-methylbenzyl)oxy)phenyl)-N-(2-((1,2,3,4-tetrahydroacridin-9-yl)amino)ethyl)acrylamide], for which, in data set [1], the “SI (selectivity index, AChE IC50/BuChE IC50)” value was 0.2. The IC50 – broadly, the concentration that inhibits the measured activity by half – in data set [1] came out at 63.2 ± 13.5 nM; in data set [2], 257 ± 3.7 nM.

Turning to `COc1cc(/C=C/C(=O)NCCNc2c3c(nc4ccccc24)CCCC3)ccc1OCc1ccccc1C` [Compound 10e, (E)-3–(3-methoxy-4-((2-methylbenzyl)oxy)phenyl)-N-(2-((1,2,3,4-tetrahydroacridin-9-yl)amino)ethyl)acrylamide], in data set [1], the “SI (selectivity index, AChE IC50/BuChE IC50)” value is given as 0.7 and the midpoint of inhibition, the IC50, lay at 64.5 ± 7.4 nM. Moreover, inhibition in data set [2] was half-maximal at 98.6 ± 19.1 nM (IC50).

Regarding `COc1ccc(COc2ccc(/C=C/C(=O)NCCNc3c4c(nc5ccccc35)CCCC4)cc2OC)cc1` [Compound 10m, (E)-3–(3-methoxy-4-((4-methoxybenzyl)oxy)phenyl)-N-(2-((1,2,3,4-tetrahydroacridin-9-yl)amino)ethyl)acrylamide], in data set [1], the “SI (selectivity index, AChE IC50/BuChE IC50)” value was found to be 0.6 and half-maximal inhibition (IC50) was put at 75.5 ± 12.8 nM. Inhibition in data set [2] was half-maximal at 134 ± 11.1 nM (IC50).

For `COc1cc(/C=C/C(=O)NCCNc2c3c(nc4ccccc24)CCCC3)ccc1OCc1ccc(C(C)(C)C)cc1` [Compound 10i, (E)-3–(4-((4-(tert-butyl)benzyl)oxy)-3-methoxyphenyl)-N-(2-((1,2,3,4-tetrahydroacridin-9-yl)amino)ethyl)acrylamide], the “SI (selectivity index, AChE IC50/BuChE IC50)” value in data set [1] stood at 1.8. Moreover, the results for the IC50 in data set [1] and in data set [2] were 284 ± 59.2 nM and 158 ± 22.8 nM, respectively.

Consider `COc1cc(/C=C/C(=O)NCCNc2c3c(nc4ccccc24)CCCC3)ccc1OCc1ccc(Cl)cc1` [Compound 10c, (E)-3–(4-((4-chlorobenzyl)oxy)-3-methoxyphenyl)-N-(2-((1,2,3,4-tetrahydroacridin-9-yl)amino)ethyl)acrylamide], for which the “SI (selectivity index, AChE IC50/BuChE IC50)” value in data set [1] turned out to be 1.6. Moreover, the IC50 in data set [1] amounted to 101 ± 14.6 nM; in data set [2] it was 62.5 ± 9.9 nM.

As for `Nc1c2c(nc3ccccc13)CCCC2` [Tacrine], the results for the ALT with adult male ICR mice (8 h after i.g. administration), in the data set with adult male ICR mice (22 h after i.g. administration) and in the data set on adult male ICR mice (36 h after i.g. administration) were 31.8 ± 2.0 U/L, 25.4 ± 2.8 U/L and 25.1 ± 2.7 U/L, respectively. Also, the AST stood at 133.7 ± 9.0 U/L with adult male ICR mice (8 h after i.g. administration), 124.3 ± 12.1 U/L with adult male ICR mice (22 h after i.g. administration) and 112.4 ± 11.4 U/L with adult male ICR mice (36 h after i.g. administration). This compound also showed a Distance to target in data set [3] of 725.64 ± 165.15 cm. Besides, the “Speed in virtual platform” value in data set [3] came to 15.78 ± 1.03 cm/s. This compound also gave a Latency to target in data set [3] (probe trial) of 25.85 ± 5.52 s. In addition, the “Cell viability (% of vehicle)” value in the data set with HepG2 cells (HepG2, 25 µM) is listed as 106.2 ± 2.3 % of vehicle; in the data set on HepG2 cells (HepG2, 125 µM) it was 97.2 ± 2.9 % of vehicle; in the data set on HepG2 cells (HepG2, 250 µM), 58.9 ± 0.7 % of vehicle; with HepG2 cells (HepG2, 500 µM), 22.7 ± 1.6 % of vehicle.

Turning to `COc1cc(/C=C/C(=O)NCCNc2c3c(nc4ccccc24)CCCC3)ccc1OCc1ccc(F)cc1` [Compound 10b, (E)-3–(4-((4-fluorobenzyl)oxy)-3-methoxyphenyl)-N-(2-((1,2,3,4-tetrahydroacridin-9-yl)amino)ethyl)acrylamide], in data set [1], the “SI (selectivity index, AChE IC50/BuChE IC50)” value amounted to 0.7 and 115 ± 31.2 nM corresponded to half-maximal inhibition (IC50). Also, the IC50 in data set [2] came to 163 ± 16.6 nM.

As to `COc1cccc(COc2ccc(/C=C/C(=O)NCCNc3c4c(nc5ccccc35)CCCC4)cc2OC)c1` [Compound 10l, (E)-3–(3-methoxy-4-((3-methoxybenzyl)oxy)phenyl)-N-(2-((1,2,3,4-tetrahydroacridin-9-yl)amino)ethyl)acrylamide], in data set [1], the “SI (selectivity index, AChE IC50/BuChE IC50)” value turned out to be 0.7 and the IC50 amounted to 143 ± 40.1 nM. The compound further gave an IC50 in data set [2] of 195 ± 16.5 nM.

For `COc1cc(/C=C/C(=O)NCCNc2c3c(nc4ccccc24)CCCC3)ccc1OCc1ccccc1` [Compound 10a, (E)-3–(4-(benzyloxy)-3-methoxyphenyl)-N-(2-((1,2,3,4-tetrahydroacridin-9-yl)amino)ethyl)acrylamide], in data set [1], the “SI (selectivity index, AChE IC50/BuChE IC50)” value was found to be 0.4 and the IC50 was 92.2 ± 18.3 nM. This compound returned an IC50 in data set [2] of 215 ± 39.5 nM.

For `COc1cc(/C=C/C(=O)NCCNc2c3c(nc4ccccc24)CCCC3)ccc1OCc1ccc(C(F)(F)F)cc1` [Compound 10k, (E)-3–(3-methoxy-4-((4-(trifluoromethyl)benzyl)oxy)phenyl)-N-(2-((1,2,3,4-tetrahydroacridin-9-yl)amino)ethyl)acrylamide], in data set [1], the “SI (selectivity index, AChE IC50/BuChE IC50)” value is 2.4 and half-maximal inhibition (IC50) was put at 129 ± 16.5 nM. For the same compound, the IC50 in data set [2] is 52.7 ± 6.3 nM.

In the case of `COc1cc(/C=C/C(=O)NCCNc2c3c(nc4ccccc24)CCCC3)ccc1OCc1ccc(C)cc1` [Compound 10h, (E)-3–(3-methoxy-4-((4-methylbenzyl)oxy)phenyl)-N-(2-((1,2,3,4-tetrahydroacridin-9-yl)amino)ethyl)acrylamide], the “SI (selectivity index, AChE IC50/BuChE IC50)” value in data set [1] worked out at 0.9. Also, the IC50 in data set [1] came to 140 ± 34.4 nM; in data set [2], 147 ± 22.4 nM.
